Columns and labels:
[1] = molecular target: T1, D2 receptor (Homo sapiens, UniProt P14416); assay: Agonist activity at the D2 receptor; format: cell-based; settings: read-out: EC50, D2 receptor agonism
T1 construct: expressed in transfected cells
Procedure: The assay was performed analogously to the assay described in Example 4.

[2] = Metabolism in human liver microsomes; settings: 1 μM, 0.2 mg protein/mL, 0 to 60 minutes
Procedure: Metabolism of dihydroergotamine (DHE) and 2-CF3 DHE was evaluated in human liver microsomes. DHE mesylate and 2-CF3 DHE mesylate (1 μM each) were incubated separately with human liver microsomes (0.2 mg protein/mL) in triplicate at 37° C. in 0.2 mL (final volume) incubation buffer (50 mM potassium phosphate buffer, pH 7.4, 3 mM MgCl2 and 1 mM EDTA, pH7.4) with or without cofactor, NADPH-generating system. The NADPH-generating system consisted of 1 mM NADP, pH 7.4, 5 mM glucose-6-phosphate, pH 7.4 and 1 unit/mL glucose-6-phosphate dehydrogenase. DHE was added to the incubation mixtures in water. 2-CF3-DHE was added to incubation mixtures in 50:50 (v:v) acetonitrile:water. A low level of acetonitrile in the incubation was maintained to avoid any solvent effects on enzyme activity (typically at 0.5% or lower). Reactions were initiated by the addition of the NADPH-generating system and were terminated at 0, 15, 30 and 60 minutes after initiation by the addition of […], of stop reagent (acetonitrile) containing two internal standards (4′-hydroxydiclofenac-d4 and 1′-hydroxymidazolam-d4, 200 and 50 ng/mL in the final stopped incubation, respectively). The samples were then centrifuged and the supernatant fractions were analyzed by LC/MS/MS to quantify the formation of 8′-OH-DHE (metabolite) in the DHE samples and DHE and 8′-OH-DHE in the 2-CF3-DHE samples.

[3] = molecular target: T2, human 5-HT2B receptor (Homo sapiens, UniProt P41595); assay: Aequorin assay, agonist activity at 5-HT2B; format: cell-based; settings: reference agonist; read-out: EC50, 5-HT2B agonism
T2 construct: host or cells: CHO-K1 coexpressing mitochondrial apoaequorin
Procedure: Percentage activation values were determined for 2-CF3 dihydroergotamine at the 5-HT2B receptor.

[4] = molecular target: T2, human 5-HT2B receptor; assay: Aequorin assay, antagonist activity at 5-HT2B; format: cell-based; settings: reference agonist at its EC80; read-out: IC50, 5-HT2B antagonism
Procedure: Percentage inhibition values were determined for 2-CF3 dihydroergotamine on the 5-HT2B receptor.

T2 sequence (P41595 whole entry): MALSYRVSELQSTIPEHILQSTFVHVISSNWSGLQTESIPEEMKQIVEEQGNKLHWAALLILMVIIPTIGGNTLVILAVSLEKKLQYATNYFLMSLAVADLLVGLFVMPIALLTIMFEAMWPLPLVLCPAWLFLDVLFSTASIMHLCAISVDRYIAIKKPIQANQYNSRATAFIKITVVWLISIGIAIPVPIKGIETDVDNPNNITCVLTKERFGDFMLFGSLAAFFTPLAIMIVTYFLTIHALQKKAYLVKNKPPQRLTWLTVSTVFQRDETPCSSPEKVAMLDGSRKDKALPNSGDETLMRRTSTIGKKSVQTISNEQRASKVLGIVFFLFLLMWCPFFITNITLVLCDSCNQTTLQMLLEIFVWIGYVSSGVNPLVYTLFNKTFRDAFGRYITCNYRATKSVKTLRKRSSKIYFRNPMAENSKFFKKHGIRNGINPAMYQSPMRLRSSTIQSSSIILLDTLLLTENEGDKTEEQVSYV
T1 sequence (P14416 whole entry): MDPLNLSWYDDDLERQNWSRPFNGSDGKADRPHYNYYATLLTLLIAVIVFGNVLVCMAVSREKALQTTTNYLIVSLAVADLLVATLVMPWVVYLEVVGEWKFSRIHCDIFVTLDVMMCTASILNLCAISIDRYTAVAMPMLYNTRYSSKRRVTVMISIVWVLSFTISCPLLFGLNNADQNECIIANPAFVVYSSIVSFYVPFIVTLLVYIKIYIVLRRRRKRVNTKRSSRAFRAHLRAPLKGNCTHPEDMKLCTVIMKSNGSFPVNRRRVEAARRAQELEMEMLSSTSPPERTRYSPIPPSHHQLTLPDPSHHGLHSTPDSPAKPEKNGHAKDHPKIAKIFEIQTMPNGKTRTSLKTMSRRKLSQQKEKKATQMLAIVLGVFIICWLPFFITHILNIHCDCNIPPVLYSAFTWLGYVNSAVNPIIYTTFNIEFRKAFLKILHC

SMILES: CN1C[C@H](C(=O)N[C@]2(C)O[C@@]3(O)[C@@H]4CCCN4C(=O)[C@H](Cc4ccccc4)N3C2=O)C[C@@H]2c3cccc4[nH]cc(c34)C[C@H]21 [dihydroergotamine, reference compound]
- EC50 [1]: 8.35 nM
- metabolism by human liver microsomes in the presence of NADPH [2]: extensively metabolized

SMILES: CC(N)Cc1c[nH]c2ccc(O)cc12 (stereo not drawn) [α-methyl-5-HT, reference compound]
- EC50 [3]: 1.01 nM

SMILES: Cc1cc(NC(=O)Nc2ccc3c(ccn3C)c2)sn1 [SB204741, reference compound]
- IC50 [4]: 28.8 nM

Reference: patent publication US20150133456A1, “FLUOROERGOLINE DERIVATIVES AND USES THEREOF” (MAP PHARMACEUTICALS, INC., priority 2012, published 2015)
